Key:
[1] = test system: Pasteurella multocida (bovine); experiment: Standard agar-dilution assay (MIC), Table VI; assay type: cell-based; settings: Na-K salt
Source text: Antibiotic A-32887 inhibits the growth of pathogenic bacteria, especially gram-positive bacteria. Table VI summarizes the minimal inhibitory concentrations (MIC), as measured by standard agar-dilution assays, at which A-32887 (Na-K salt) inhibits certain bacteria.

ATPase = experiment: In vitro ATPase inhibition test using NaCl; assay type: biochemical
Source text: In yet another aspect, the A-32887 compounds are active as inhibitors of the enzyme ATPase. ATPase, an alkali-metal-sensitive enzyme found in cell membranes, is involved in the energy necessary for active transport. "Active transport" refers to the energy-requiring series of operations whereby intracellular and extracellular fluids maintain their compositions. Inhibitors of ATPase reduce the energy required for active transport.

Diplococcus pneumoniae = experiment: Conventional disc-diffusion method, Table VII; assay type: cell-based
Source text: (§1) The activity of A-32887 (Na-K salt) against illustrative bacteria, as measured by the conventional disc-diffusion method, is summarized in Table VI.

[2] = test system: Streptococcus sp. (Group D); experiment: Conventional disc-diffusion method, Table VII; assay type: cell-based
Source text: as §1

[3] = test system: Streptococcus pyogenes (Group A); experiment: Conventional disc-diffusion method, Table VII; assay type: cell-based
Source text: as §1

[4] = test system: Staphylococcus aureus 3055; experiment: Conventional disc-diffusion method, Table VII; assay type: cell-based
Source text: as §1

[5] = test system: Bacteriodes fragilis ssp thetaiotaomicron; experiment: Standard agar-dilution assay, anaerobic bacteria, Table IX; assay type: cell-based; settings: 24-hour incubation
[6] = test system: Peptostreptococcus intermedius; experiment: as above; assay type: cell-based; settings: 24-hour incubation
[7] = test system: Bacteriodes fragilis ssp fragilis 1936B; experiment: as above; assay type: cell-based; settings: 24-hour incubation
Clostridium septicum = experiment: as above; assay type: cell-based; settings: 24-hour incubation
Description: (§2) Table IX summarizes the MIC's at which A-32887 (Na-K salt) inhibits various anaerobic bacteria, as determined by standard agar-dilution assay. End points were read after 24-hour incubation.

Actinomyces israelii = experiment: as above; assay type: cell-based; settings: 24-hour incubation
Description: as §2

Bacteriodes vulgatis = experiment: as above; assay type: cell-based; settings: 24-hour incubation
Description: as §2

[8] = test system: Bacteriodes fragilis ssp fragilis 111; experiment: as above; assay type: cell-based; settings: 24-hour incubation
Description: as §2

[9] = test system: Bacteriodes melaninogenicus 2736; experiment: as above; assay type: cell-based; settings: 24-hour incubation
guinea pig left atria = experiment: Cardiac contractility in guinea pig left atria; settings: 10^-5 molar
Source text: The A-32887 compounds are potential cardiotonic agents. In tests using guinea pig left atria, A-32887 (Na-K salt) increased cardiac contractility. Response to this test is expressed as a percentage of the maximal force that could be elicited by a challenge dose of norepinephrine. A-32887 (Na-K salt), at a 10^-5 molar concentration, increased cardiac contractility by 28.0 ± 7.1 percent.

[10] = test system: Bacteriodes fragilis ssp fragilis 1877; experiment: Standard agar-dilution assay, anaerobic bacteria, Table IX; assay type: cell-based; settings: 24-hour incubation

Structure (SMILES): CO[C@H]1CC[C@H](OC2[C@@H](C)[C@@](C)(O)O[C@H]([C@H]3CC[C@H]([C@@H]4CC[C@H]([C@@]5(C)O[C@]6(O[C@H](C[C@@H]7O[C@](O)([C@@H](O)C(=O)O)[C@@H](C)[C@H](OC)[C@@]7(C)OC)C[C@@H](OC)[C@H]6C)[C@H](C)[C@H]5OC)O4)O3)[C@H]2C)O[C@@H]1C.[K+].[Na+] (some centres unmarked) [A-32887 (Na-K salt)]
- MIC [1]: 50.00 µg/mL
- ATPase inhibition (ATPase): shown to inhibit ATPase
- Zone of Inhibition (Diplococcus pneumoniae; 30 mcg/disc): 16.0 mm
- Zone of Inhibition (Diplococcus pneumoniae; 300 mcg/disc): 18.0 mm
- Zone of Inhibition ([2]; 30 mcg/disc): 13.7 mm
- Zone of Inhibition ([2]; 300 mcg/disc): 14.7 mm
- Zone of Inhibition ([3]; 30 mcg/disc): 14.0 mm
- Zone of Inhibition ([3]; 300 mcg/disc): 17.5 mm
- Zone of Inhibition ([4]; 30 mcg/disc): 12.0 mm
- Zone of Inhibition ([4]; 300 mcg/disc): 15.6 mm
- MIC [5]: 2 µg/mL
- MIC [6]: 1.0 µg/mL
- MIC [7]: 2 µg/mL
- MIC (Clostridium septicum): ≤ 0.5 µg/mL
- MIC (Actinomyces israelii): ≤ 0.5 µg/mL
- MIC (Bacteriodes vulgatis): 4 µg/mL
- MIC [8]: 2 µg/mL
- MIC [9]: 2 µg/mL
- increase of cardiac contractility (percentage of maximal force elicited by norepinephrine) (guinea pig left atria): 28.0 ± 7.1%
- MIC [10]: 2 µg/mL

— patent US4132778A, “Antibiotic A-32887” (Eli Lilly and Company, priority 1977, dated 1979)
